Values joined by “and” are separate entries in the source; they are usually repeats but may differ in a detail not shown here. Equal values may be shown once.
Columns and labels:
HCT-15 = experiment: Antiproliferative activity against human colon cancer HCT-15 cell line; assay type: functional, cell-based
OVCAR-5 = experiment: Antiproliferative activity against human cancer OVCAR-5 cell line; assay type: functional, cell-based
HEp-2 = experiment: Antiproliferative activity against human cancer Hep-2 cell line; assay type: functional, cell-based
HOP-62 = experiment: Antiproliferative activity against human cancer HOP-62 cell line; assay type: functional, cell-based
SiHa = experiment: Antiproliferative activity against human SIHA cell line; assay type: functional, cell-based
A549 = experiment: Antiproliferative activity against human cancer A-549 cell line; assay type: functional, cell-based
HT-29 = experiment: Antiproliferative activity against Colon cancer HT-29 cell line; assay type: functional, cell-based, Homo sapiens
SW-620 = experiment: Inhibitory concentration against human colon cancer SW-620 cell line; assay type: functional, cell-based
PC-3 = experiment: Antiproliferative activity against prostate cancer PC-3 cell line; assay type: functional, cell-based, Homo sapiens
DU-145 = experiment: Antiproliferative activity against human cancer DU-145 cell line; assay type: functional, cell-based
SNB-78 = experiment: Antiproliferative activity against human cancer SNB-78 cell line; assay type: functional, cell-based
SK-OV-3 = experiment: Antiproliferative activity against human cancer SKOV-3 cell line; assay type: functional, cell-based

| Compound | IC50 (HCT-15) | IC50 (OVCAR-5; Homo sapiens, OVCAR-5) | IC50 (HEp-2) | IC50 (HOP-62; Homo sapiens, HOP-62) | IC50 (SiHa; Homo sapiens, SiHa) | IC50 (A549; Homo sapiens, A549) | IC50 (HT-29; Homo sapiens, HT-29) | IC50 (SW-620; Homo sapiens, SW-620) | IC50 (PC-3; Homo sapiens, PC-3) | IC50 (DU-145; Homo sapiens, DU-145) | IC50 (SNB-78; Homo sapiens, SNB-78) | also measured |
| --- | --- | --- | --- | --- | --- | --- | --- | --- | --- | --- | --- | --- |
| COc1cc(/C=C/C(=O)c2cc(OC)c(OC)c(OC)c2)cc(OC)c1OC | 6.55 µM | 9.23 µM | 7.75 µM | 10 µM | 8.55 µM | – | – | – | – | – | – | – |
| COc1ccc(C2NN=C(c3cc(OC)c(OC)c(OC)c3)C2O)cc1OC (stereo unspecified) | 12 µM | 8.76 µM | – | 10.7 µM | – | 10 µM | 8.43 µM | 8.63 µM | – | – | – | – |
| COc1cc(C2=NNC(c3ccc(Cl)cc3)C2O)cc(OC)c1OC (stereo unspecified) | 9.45 µM | 8.65 µM | – | 20.4 µM | 56.4 µM | 15.1 µM | 11.1 µM | 8.41 µM | 34.6 µM | – | – | – |
| COc1cc(-c2cc(-c3cc(OC)c(OC)c(OC)c3)[nH]n2)cc(OC)c1OC | 6.01 µM | 9.95 µM | 6.43 µM | – | 25 µM | 7.58 µM | 5.62 µM | 10 µM | 13.3 µM | 35.1 µM | 22 µM | – |
| COc1cc(C2=NNC(c3ccc(F)cc3)C2O)cc(OC)c1OC (stereo unspecified) | 8.45 µM | 7.15 µM | – | 6.55 µM | – | 5.72 µM | 6.01 µM | 5.85 µM | – | – | – | – |
| COc1cc(-c2nn(C(C)=O)c(-c3ccc4c(c3)OCO4)c2OC(C)=O)cc(OC)c1OC | 8.9 µM | – | 61.6 µM | 18.4 µM | 58.1 µM | – | 15.6 µM | – | 18.1 µM | 48 µM | 33 µM | IC50 (SK-OV-3): 39.1 µM |
| COc1cccc(C(=O)/C=C/c2cc(OC)c(OC)c(OC)c2)c1 | 4.9 µM | 9 µM | 13.7 µM | 10.1 µM | 10.9 µM | 8.07 µM | 7.08 µM | – | 11.6 µM | 14.9 µM | 10 µM | – |
| COc1ccc(-c2cc(-c3cc(OC)c(OC)c(OC)c3)[nH]n2)cc1 | – | 9.54 µM | – | – | 15.9 µM | – | – | 5.15 µM | 15.8 µM | 24 µM | – | IC50 (A549; a549): 4.35 µM and 1.01 µM; IC50 (HT-29; ht-29): 2.95 µM and 0.62 µM; IC50 (OVCAR-5; ovcar-5): 7.85 µM; IC50 (HOP-62; hop-62): 4.81 µM and 0.65 µM; IC50 (DU-145; du-145): 27 µM; IC50 (SiHa; siha): 14.5 µM; IC50 (SNB-78; snb-78): 21 µM and 50 µM; IC50 (PC-3; pc-3): 11.1 µM; IC50 (SW-620; sw-620): 3.41 µM |
| COc1cc(C(=O)/C=C/c2ccc(Cl)cc2)cc(OC)c1OC | 24 µM | 16.8 µM | 12 µM | 26.9 µM | 40 µM | – | – | – | 24.1 µM | 28.1 µM | 25.4 µM | – |
| COc1ccc(-c2cc(-c3cc(OC)c(OC)c(OC)c3)nn2C(C)=O)cc1OC | 16 µM | 16.7 µM | – | 22.1 µM | 54.8 µM | 10 µM | 10.4 µM | 16.1 µM | – | – | – | – |
| COc1cc(/C=C/C(=O)c2ccc(OC(C)=O)cc2)cc(OC)c1OC | 7.75 µM | – | 13.1 µM | 56.1 µM | 13.3 µM | 12 µM | 8.37 µM | – | – | – | – | – |
| COc1cccc(C2NN=C(c3cc(OC)c(OC)c(OC)c3)C2O)c1 (stereo unspecified) | 7.85 µM | 7.05 µM | – | 8.1 µM | – | 7.2 µM | 5.95 µM | 7.35 µM | 28 µM | – | – | – |
| COc1cc(-c2cc(-c3ccc(F)cc3)[nH]n2)cc(OC)c1OC | 0.48 µM | 6.45 µM | 3.81 µM | 0.56 µM | 1.08 µM | 3.8 µM | 4.75 µM | 5.9 µM | 8.93 µM | 3.87 µM | 22.4 µM | – |
| COc1ccc(/C=C/C(=O)c2cc(OC)c(OC)c(OC)c2)cc1OC | 7.95 µM | 8.3 µM | 6.15 µM | 8.12 µM | 9.35 µM | 6.9 µM | 6.64 µM | 5.8 µM | 7.85 µM | 9.21 µM | 22.8 µM | IC50 (SK-OV-3): 6.09 µM |
| COc1ccc(-c2cc(-c3cc(OC)c(OC)c(OC)c3)[nH]n2)cc1OC | 0.25 µM | 4.4 µM | 8.41 µM | 0.93 µM | 3.63 µM | 0.87 µM | 0.47 µM | 0.23 µM | 2.64 µM | – | – | – |
| COc1ccc(C2NN=C(c3cc(OC)c(OC)c(OC)c3)C2O)cc1 (stereo unspecified) | 0.96 µM | 13 µM | 7.81 µM | 0.94 µM | 20.1 µM | 1.07 µM | 0.96 µM | 2.67 µM | 15.2 µM | – | – | – |
| COc1cc(C(=O)/C=C/c2cc(OC)c(OC)c(OC)c2)ccc1O | 7.75 µM | – | 6.01 µM | 20.2 µM | 40.4 µM | 19.2 µM | 20.2 µM | – | – | – | – | – |
| COc1cc(C(=O)/C=C/c2cc(OC)c(OC)c(OC)c2)ccc1OC(C)=O | 7.75 µM | – | 6.95 µM | 9.2 µM | 33 µM | 15.6 µM | 10.5 µM | – | – | – | – | IC50 (SK-OV-3): 8.35 µM |
| COc1cc(C(=O)/C=C/c2ccc3c(c2)OCO3)cc(OC)c1OC | 23.7 µM | 5.65 µM | 10.1 µM | 9.61 µM | 12.8 µM | – | – | – | 11.7 µM | 19.8 µM | 16.7 µM | – |
| COc1cc(-c2cc(-c3ccc(Cl)cc3)[nH]n2)cc(OC)c1OC | 6.45 µM | 8.61 µM | – | 12.3 µM | – | 15.8 µM | 8.09 µM | 4.96 µM | – | – | 14 µM | – |
| COc1cc(C2=NNC(c3ccc4c(c3)OCO4)C2O)cc(OC)c1OC (stereo unspecified) | – | 6.81 µM | 40 µM | 20.3 µM | 43 µM | 6.74 µM | 5.89 µM | 6.75 µM | 34.5 µM | 34.7 µM | 53.7 µM | – |
| COc1cc(-c2cc(-c3ccc4c(c3)OCO4)[nH]n2)cc(OC)c1OC | 15.6 µM | 33 µM | 34 µM | 13.5 µM | 10 µM | 8.85 µM | 6.01 µM | 9.25 µM | 9.55 µM | 8.56 µM | 74 µM | – |
| COc1cc(C2=NNC(c3cc(OC)c(OC)c(OC)c3)C2O)cc(OC)c1OC (stereo unspecified) | 8.35 µM | 20.6 µM | – | 20.4 µM | 83 µM | 15.6 µM | 7.41 µM | 13.6 µM | 108 µM | 94.1 µM | – | – |
| COc1cc(/C=C/C(=O)c2ccccc2)cc(OC)c1OC | 15.8 µM | – | 11.9 µM | 16.6 µM | 20.8 µM | 8.96 µM | 12 µM | 8.45 µM | – | – | – | IC50 (SK-OV-3): 56.5 µM |
| COc1cc(C(=O)/C=C/c2ccc(F)cc2)cc(OC)c1OC | 11.7 µM | 18.3 µM | 10 µM | 24.7 µM | 7.92 µM | – | – | – | 11.7 µM | 13.3 µM | 13.8 µM | – |

Reference: ChEMBL document CHEMBL1139638, “Synthesis and biological evaluation of chalcones and their derived pyrazoles as potential cytotoxic agents” (Bioorg Med Chem Lett, 2005)
